Measured values as given in patent EP0318620A1, “Herbicidal sulfonamides” (E.I. DU PONT DE NEMOURS AND COMPANY, priority 1987, dated 1989).

What was measured:
[1] = tested on: sicklepod; test: Test B pan test in Sassafras sandy loam soil, pre- and postemergence; assay type: in vivo, Cassia obtusifolia; conditions: scale 0 to 100
Excerpt: (§1) Three round pans (25 cm diameter by 12.5 cm deep) were filled with Sassafras sandy loam soil. One pan was planted with nutsedge (Cyperus rotundus) tubers, crabgrass (Digitaria sanguinalis), sicklepod (Cassia obtusifolia), jimsonweed (Datura stramonium), velvetleaf (Abutilon theophrasti), lambsquarters (Chenopodim album), rice (Oryza sativa) and teaweed (Sida spinosa). The second pot was planted with green foxtail (Setaria viridis), cocklebur (Xantium pensyivanicum), morningglory (lpomoea hederacea), cotton (Gossypium hirsutum), johnsongrass (Sorghum halepense), barnyardgrass (Echinochloa crusgalli), corn (Zea mays), soybean (Glycine max) and giant foxtail (Setaria faberi). The third pot was planted with wheat (Triticum aestivum), barley (Hordeum vulgare), wild buckwheat (Polgonum convolvulus L.), cheatgrass (Bromus secalinus L.), sugarbeet (Beta vulgaris), wild oats (Avena fatua), viola (Viola arvensis), blackgrass (Alopecurus myosuroides), and rape (Brassica napus). The plants were grown for approximately fourteen days, then sprayed postemergence with the chemicals dissolved in a non-phytotoxic solvent.
(§2) Three round pans (25 cm diameter by 12.5 cm deep) were filled with Sassafras sandy loam soil. One pan was planted with nutsedge tubers, crabgrass, sicklepod, jimsonweed, velvetleaf, lambsquarters, rice and teaweed. The second pot was planted with green foxtail, cocklebur, morningglory, cottom, johnsongrass, . barnyardgrass, corn, soybean and giant foxtail. The third pot was planted with wheat, barley, wild buckwheat, cheatgrass, sugarbeet, wild oat, viola, blackgrass and rape. The three pans were sprayed preemer gence with the chemicals dissolved in a non-phytotoxic solvent.
(§3) Treated plants and controls were maintained in the greenhouse for 24 days, then all rated plants were compared to controls and visually rated for plant response.
(§4) A dash (-) response means no test.

[2] = tested on: purple nutsedge; test: Test A greenhouse herbicide test, pre- and postemergence; assay type: in vivo, Cyperus rotundus; conditions: rated after sixteen days
Excerpt: (§5) Seeds of crabgrass (Digitaria spp.), barnyardgrass (Echinochloa crusgalli), cheatgrass (Bromus Secalinus), giant foxtail (Setaria faberii), wild oats (Avena fatua), velvetleaf (Abutilon theophrasti), morningglory (Ipomoea spp. , cocklebur (Xanthium pensylvanicum). sorghum, corn, barley, soybean, sugarbeet, cotton, rice, wheat and purple nutsedge (Cyperus rotundus) tubers were planted and treated preemergence with the test chemicals dissolved in a non-phytotoxic solvent. At the same time, these crop and weed species were treated with a soil/foliage application. At the time of treatment, the plants ranged in height from 2 to 18 cm. Treated plants and controls were maintained in a greenhouse for sixteen days, after which all species were compared to controls and visually rated for response to treatment. The ratings, summarized in Table A, are based on a numerical scale extending from 0 = no injury, to 10 = complete kill. The accompanying descriptive symbols have the following meanings: • B = burn; • C = chlorosis/necrosis; • D = defoliation; • E = emergence inhibition; • G = growth retardation; • H = formative effect; • U = unusual pigmentation; • X = axillary stimulation; • S = albinism; and • 6Y = abscised buds or flowers.

[3] = tested on: jimsonweed; test: Test B pan test in Sassafras sandy loam soil, pre- and postemergence; assay type: in vivo, Datura stramonium; conditions: scale 0 to 100
Excerpt: as §1, §2, §3, §4

[4] = tested on: crabgrass; test: Test A greenhouse herbicide test, pre- and postemergence; assay type: in vivo, Digitaria spp.; conditions: PREEMERGENCE; RATE 0.01 KG/HA; rated after sixteen days
Excerpt: as §5

[5] = tested on: wild buckwheat; test: Test B pan test in Sassafras sandy loam soil, pre- and postemergence; assay type: in vivo, Polgonum convolvulus L.; conditions: scale 0 to 100
Excerpt: as §1, §2, §3, §4

[6] = tested on: giant foxtail; test: as above; assay type: in vivo, Setaria faberi; conditions: scale 0 to 100
Excerpt: as §1, §2, §3, §4

[7] = tested on: sorghum; test: Test A greenhouse herbicide test, pre- and postemergence; assay type: in vivo; conditions: POSTEMERGENCE; RATE 0.05 KG/HA; rated after sixteen days
Excerpt: as §5

[8] = tested on: rice; test: as above; assay type: in vivo; conditions: rated after sixteen days
Excerpt: as §5

[9] = tested on: soybean; test: as above; assay type: in vivo; conditions: rated after sixteen days
Excerpt: as §5

[10] = tested on: cotton; test: as above; assay type: in vivo; conditions: rated after sixteen days
Excerpt: as §5

[11] = tested on: sugarbeet; test: as above; assay type: in vivo; conditions: POSTEMERGENCE, rated after sixteen days
Excerpt: as §5

[12] = tested on: corn; test: as above; assay type: in vivo; conditions: rated after sixteen days
Excerpt: as §5

[13] = tested on: velvetleaf; test: as above; assay type: in vivo, Abutilon theophrasti; conditions: rated after sixteen days
Excerpt: as §5

[14] = tested on: barnyardgrass; test: Test B pan test in Sassafras sandy loam soil, pre- and postemergence; assay type: in vivo, Echinochloa crusgalli; conditions: scale 0 to 100
Excerpt: as §1, §2, §3, §4

[15] = tested on: barnyardgrass; test: Test A greenhouse herbicide test, pre- and postemergence; assay type: in vivo, Echinochloa crusgalli; conditions: rated after sixteen days
Excerpt: as §5

[16] = tested on: morningglory; test: Test B pan test in Sassafras sandy loam soil, pre- and postemergence; assay type: in vivo, lpomoea hederacea; conditions: scale 0 to 100
Excerpt: as §1, §2, §3, §4

[17] = tested on: johnsongrass; test: as above; assay type: in vivo, Sorghum halepense; conditions: scale 0 to 100
Excerpt: as §1, §2, §3, §4

CCOC(=O)c1c(CC#N)cccc1S(=O)(=O)NC(=O)Nc1nc(OC)cc(OC)n1 [Compound 3, 2-(cyanomethyl)-6 [[(4,6-dimethoxypyrimidin-2-yl)-aminocarbonyl]aminosulfonyl]benzoic acid, ethyl ester]
CASSIA response rating ([1]; POSTEMERGENCE, RATE 0001 G/HA): 30
CASSIA response rating ([1]; POSTEMERGENCE, RATE 0004 G/HA): 50
CASSIA response rating ([1]; POSTEMERGENCE, RATE 0016 G/HA): 70
CASSIA response rating ([1]; POSTEMERGENCE, RATE 0062 G/HA): 90
CASSIA response rating ([1]; PREEMERGENCE, RATE 0004 G/HA): 0
CASSIA response rating ([1]; PREEMERGENCE, RATE 0016 G/HA): 0
CASSIA response rating ([1]; PREEMERGENCE, RATE 0062 G/HA): 0
NUTSEDGE visual rating of response to treatment ([2]; POSTEMERGENCE, RATE 0.01 KG/HA): 10C
NUTSEDGE visual rating of response to treatment ([2]; POSTEMERGENCE, RATE 0.05 KG/HA): 10C
NUTSEDGE visual rating of response to treatment ([2]; PREEMERGENCE, RATE 0.01 KG/HA): 4G
NUTSEDGE visual rating of response to treatment ([2]; PREEMERGENCE, RATE 0.05 KG/HA): 9G
JIMSONWEED response rating ([3]; POSTEMERGENCE, RATE 0001 G/HA): 30
JIMSONWEED response rating ([3]; POSTEMERGENCE, RATE 0004 G/HA): 60
JIMSONWEED response rating ([3]; POSTEMERGENCE, RATE 0016 G/HA): 100
JIMSONWEED response rating ([3]; POSTEMERGENCE, RATE 0062 G/HA): 100
JIMSONWEED response rating ([3]; PREEMERGENCE, RATE 0004 G/HA): 0
JIMSONWEED response rating ([3]; PREEMERGENCE, RATE 0016 G/HA): 0
JIMSONWEED response rating ([3]; PREEMERGENCE, RATE 0062 G/HA): 30
CRABGRASS visual rating of response to treatment [4]: 4G
WILD BUCKWHEAT response rating ([5]; POSTEMERGENCE, RATE 0001 G/HA): 30
WILD BUCKWHEAT response rating ([5]; POSTEMERGENCE, RATE 0004 G/HA): 60
WILD BUCKWHEAT response rating ([5]; POSTEMERGENCE, RATE 0016 G/HA): 90
WILD BUCKWHEAT response rating ([5]; POSTEMERGENCE, RATE 0062 G/HA): 100
WILD BUCKWHEAT response rating ([5]; PREEMERGENCE, RATE 0004 G/HA): 50
WILD BUCKWHEAT response rating ([5]; PREEMERGENCE, RATE 0016 G/HA): 70
WILD BUCKWHEAT response rating ([5]; PREEMERGENCE, RATE 0062 G/HA): 90
GIANT FOXTAIL response rating ([6]; POSTEMERGENCE, RATE 0001 G/HA): 90
GIANT FOXTAIL response rating ([6]; POSTEMERGENCE, RATE 0004 G/HA): 100
GIANT FOXTAIL response rating ([6]; POSTEMERGENCE, RATE 0016 G/HA): 100
GIANT FOXTAIL response rating ([6]; POSTEMERGENCE, RATE 0062 G/HA): 100
GIANT FOXTAIL response rating ([6]; PREEMERGENCE, RATE 0004 G/HA): 30
GIANT FOXTAIL response rating ([6]; PREEMERGENCE, RATE 0016 G/HA): 60
GIANT FOXTAIL response rating ([6]; PREEMERGENCE, RATE 0062 G/HA): 100
SORGHUM visual rating of response to treatment [7]: 9C
RICE visual rating of response to treatment ([8]; POSTEMERGENCE, RATE 0.01 KG/HA): 9C
RICE visual rating of response to treatment ([8]; POSTEMERGENCE, RATE 0.05 KG/HA): 9C
RICE visual rating of response to treatment ([8]; PREEMERGENCE, RATE 0.01 KG/HA): 3G
SOYBEAN visual rating of response to treatment ([9]; POSTEMERGENCE, RATE 0.05 KG/HA): 9C
SOYBEAN visual rating of response to treatment ([9]; PREEMERGENCE, RATE 0.01 KG/HA): 5G
COTTON visual rating of response to treatment ([10]; POSTEMERGENCE, RATE 0.01 KG/HA): 9C
COTTON visual rating of response to treatment ([10]; POSTEMERGENCE, RATE 0.05 KG/HA): 10C
COTTON visual rating of response to treatment ([10]; PREEMERGENCE, RATE 0.01 KG/HA): 3G
SUGAR BEETS visual rating of response to treatment ([11]; RATE 0.01 KG/HA): 10C
SUGAR BEETS visual rating of response to treatment ([11]; RATE 0.05 KG/HA): 10C
CORN visual rating of response to treatment ([12]; POSTEMERGENCE, RATE 0.01 KG/HA): 10C
CORN visual rating of response to treatment ([12]; PREEMERGENCE, RATE 0.05 KG/HA): 9H
VELVETLEAF visual rating of response to treatment ([13]; POSTEMERGENCE, RATE 0.01 KG/HA): 10C
VELVETLEAF visual rating of response to treatment ([13]; POSTEMERGENCE, RATE 0.05 KG/HA): 10C
VELVETLEAF visual rating of response to treatment ([13]; PREEMERGENCE, RATE 0.01 KG/HA): 2H
VELVETLEAF visual rating of response to treatment ([13]; PREEMERGENCE, RATE 0.05 KG/HA): 5H
BARNYARD GRASS response rating ([14]; POSTEMERGENCE, RATE 0001 G/HA): 70
BARNYARD GRASS response rating ([14]; POSTEMERGENCE, RATE 0004 G/HA): 100
BARNYARD GRASS response rating ([14]; POSTEMERGENCE, RATE 0016 G/HA): 100
BARNYARD GRASS response rating ([14]; POSTEMERGENCE, RATE 0062 G/HA): 100
BARNYARD GRASS response rating ([14]; PREEMERGENCE, RATE 0004 G/HA): 30
BARNYARD GRASS response rating ([14]; PREEMERGENCE, RATE 0016 G/HA): 50
BARNYARD GRASS response rating ([14]; PREEMERGENCE, RATE 0062 G/HA): 80
BARNYARD GRASS visual rating of response to treatment ([15]; POSTEMERGENCE, RATE 0.01 KG/HA): 9C
BARNYARD GRASS visual rating of response to treatment ([15]; POSTEMERGENCE, RATE 0.05 KG/HA): 10C
BARNYARD GRASS visual rating of response to treatment ([15]; PREEMERGENCE, RATE 0.01 KG/HA): 2G
MORNINGGLORY response rating ([16]; POSTEMERGENCE, RATE 0001 G/HA): 30
MORNINGGLORY response rating ([16]; POSTEMERGENCE, RATE 0004 G/HA): 50
MORNINGGLORY response rating ([16]; POSTEMERGENCE, RATE 0016 G/HA): 70
MORNINGGLORY response rating ([16]; POSTEMERGENCE, RATE 0062 G/HA): 90
MORNINGGLORY response rating ([16]; PREEMERGENCE, RATE 0004 G/HA): 0
MORNINGGLORY response rating ([16]; PREEMERGENCE, RATE 0016 G/HA): 0
MORNINGGLORY response rating ([16]; PREEMERGENCE, RATE 0062 G/HA): 30
JOHNSONGRASS response rating ([17]; POSTEMERGENCE, RATE 0001 G/HA): 30
JOHNSONGRASS response rating ([17]; POSTEMERGENCE, RATE 0004 G/HA): 60
JOHNSONGRASS response rating ([17]; POSTEMERGENCE, RATE 0016 G/HA): 100
JOHNSONGRASS response rating ([17]; POSTEMERGENCE, RATE 0062 G/HA): 100
JOHNSONGRASS response rating ([17]; PREEMERGENCE, RATE 0004 G/HA): 0
JOHNSONGRASS response rating ([17]; PREEMERGENCE, RATE 0016 G/HA): 30
JOHNSONGRASS response rating ([17]; PREEMERGENCE, RATE 0062 G/HA): 80
